In ChEMBL document CHEMBL4725238, “Methylene blue-based 7-nitro-1,2,3-benzoxadiazole NIR fluorescent probe triggered by HS” (Bioorg Med Chem Lett, 2020) one finds Activity, viability and Drug uptake data, which are given here for 1 compound.

Series [1] in a line: Chloride reactivity in pH 7 C2H5OH/PBS assessed as change in fluorescence at 50 uM.
Series [2] can be described thus: Acetate reactivity in pH 7 C2H5OH/PBS assessed as change in fluorescence at 50 uM.
Series [3] can be described thus: Nitrate reactivity in pH 7 C2H5OH/PBS assessed as change in fluorescence at 50 uM.
Series [4] in a line: Cytotoxicity against human HCT-116 cells assessed as cell viability up to 50 uM incubated for 24 hrs by CCK8 assay relative to control. Format: cell-based. The conditions noted are these: read-out: Activity. (In general: Tetrazolium dyes change colour on reduction, which living cells bring about.)
Series [5] in a line: […] reactivity in pH 7 C2H5OH/PBS assessed as change in fluorescence at 50 uM.
Series [6] can be described thus: Sodium reactivity in pH 7 C2H5OH/PBS assessed as change in fluorescence at 50 uM.
Series [7] is described as follows: Cytotoxicity against human HCT-116 cells assessed as cell viability at 10 uM incubated for 24 hrs by CCK8 assay relative to control. Format: cell-based. The conditions noted are these: read-out: Activity.
Series [8] can be described thus: Hydrogen sulphide reactivity in pH 7 C2H5OH/PBS assessed as change in fluorescence at 50 uM.
Series [9] is described as follows: Iodide reactivity in pH 7 C2H5OH/PBS assessed as change in fluorescence at 50 uM.
Series [10] in a line: Sulfate reactivity in pH 7 C2H5OH/PBS assessed as change in fluorescence at 50 uM.
The nature of series [11]: Glutathione reactivity in pH 7 C2H5OH/PBS assessed as change in fluorescence at 50 uM.
A short description of series [12]: Thiocyanate reactivity in pH 7 C2H5OH/PBS assessed as change in fluorescence at 50 uM.
The nature of series [13]: Phosphoric acid reactivity in pH 7 C2H5OH/PBS assessed as change in fluorescence at 50 uM.
A short description of series [14]: Cysteine reactivity in pH 7 C2H5OH/PBS assessed as change in fluorescence at 50 uM.
Series [15] can be described thus: Drug accumulation in human HCT116 cells up to 100 uM in presence of Na2S. Format: ADME, cell-based. Particulars: hct-116.
Series [16] can be described thus: Bromide reactivity in pH 7 C2H5OH/PBS assessed as change in fluorescence at 50 uM.
A short description of series [17]: Bicarbonate reactivity in pH 7 C2H5OH/PBS assessed as change in fluorescence at 50 uM.
Series [18] is described as follows: Zinc reactivity in pH 7 C2H5OH/PBS assessed as change in fluorescence at 50 uM.
Series [19] in a line: Potassium reactivity in pH 7 C2H5OH/PBS assessed as change in fluorescence at 50 uM.

The source made the active and inactive calls. No cut-off for these calls is given here.

As to `CN(C)c1ccc2c(c1)Sc1cc(N(C)C)ccc1N2c1ccc([N+](=O)[O-])c2nonc12`, the result in [1], in [2], in series [3], in [5], in series [6] and in series [9] was inactive. Also, the outcome in series [10], in series [12], in series [13], in [16], in [17] and in series [18] was inactive. The result in series [19] was inactive. The viability at 24 h in series [4] stood at 64%. Besides, the viability at 24 h, 10 µM in series [7] is over 85%. For the same compound, the outcome in series [8], in [11] and in [14] was Active. Moreover, in series [15], the Drug uptake entry is given as “Active”.
